EP2243478A1, “PHARMACEUTICAL COMPOSITION COMBINING AN ANTIARTHRITIC AGENT AND AN INTERLEUKIN-1 INHIBITING AGENT, WHICH CAN BE USED TO CONTROL AND TREAT OSTEOARTHRITIS AND RELATED DISEASES” (World Trade Import-Export, WTIE A.G., priority 2007, dated 2009)

Key:
pain = details: dose from 2 to 4 gr/day; cited from earlier work
[1] = cited from earlier work
patients with hip OA = assay: comparative clinical study of Diacerein, Chondroitin and the combination Diacerein/Chondroitin, 6 month follow-up; type: in vivo
Description: A comparative clinical study in patients with hip OA was carried out with a 6 month term for follow-up. The study compared the efficacy of single Diacerein administration, single chondroitin and a combination of Diacerein/Chondroitin. The study included 120 patients which were divided in 3 treatment groups: • Groups 1: received Diacerein 50 mg administration twice a day. • Group 2: received Chondroitin 600 mg administration twice a day. • Group 3 : received Diacerein 50 mg /Chondroitin 600 mg administration twice a day.
Patients fulfilled with the inclusion criteria from the American Rheumatology Academy. Inclusion criteria were: • Symptomatic disease presence, defined as daily hip pain at least during the last two months. • A functional pain Lequesne index at least of 3 points. • Radiographic criteria were a joint space between 1 and 3 mm (without exceeding 3 mm) or less than 0.5 mm qf contralateral hip.
Joint hip space was measured through a prior pelvic radiography reading center, using a graded 0.1 mm magnification crystal. Start and end of treatment was radiographically assessed comparing the affected vs contralateral hip.
Laboratory analyses were carried out at the beginning of the study and on 6 months of treatment, assessing liver and kidney performance.

[2] = in vivo; cited from earlier work
[3] = cited from earlier work; remark: listed apart in the source

## CC(=O)Nc1ccc(O)cc1 [Paracetamol]
pain
  controlling pain in patients: 40 % of patients

## O=C(O)c1cc(O)c2c(c1)C(=O)c1cccc(O)c1C2=O [Rein, rein]
[1]
  bound to plasma proteins: 99%

## CC(=O)Oc1cccc2c1C(=O)c1c(OC(C)=O)cc(C(=O)O)cc1C2=O [Diacerein]
Patients with hip OA; Data from first laboratory analysis, P= 0.035
  Patient percentage with radiographic progression (joint space loss at least of 0.5 mm): 51.6%
Patients with hip OA; Data upon 6 month treatment completion, P= 0.006
  Patient percentage with radiographic progression (joint space loss at least of 0.5 mm): 46.7%
Patients with hip OA; after two months of treatment (time printed for Group 1), forty patients per group, twice a day oral
  patients cancelled the treatment (because of inefficacy): 6 patients
Patients with hip OA; at 6 months of treatment, hip
  joint space, Average ± SD: 0.17 ± 0.24 mm/6 months
[2]
  clearance half-life in plasma: 5 to 7 h
[3]; after treatment
  slow action start, not significant until: 4 weeks
[3]; in vivo
  effect is maintained after having cancelled the treatment: ≥ 2 months
